Source: US20100261246A1, “METHOD FOR INHIBITING TELOMERASE REACTION” (PANASONIC CORPORATION, priority 2009, published 2010)

Tests used:
[1] = system: TaKaLa LA Taq Hot Start Version (polymerase reaction); assay: PCR control band in the separate telomerase reaction / PCR experiment; type: biochemical; conditions: 10 μM, no addition of λDNA
Protocol: Moreover, effects of inhibiting telomerase by TMPyP and anionic phthalocyanines were compared in Comparative Example 3 and Example 4 to 5 below. In these experiments, the S7700 kit was used similarly to the aforementioned Comparative Examples 1 to 2 and Examples 1 to 3. However, in Comparative Examples 1 to 2 and Examples 1 to 3 described above, the reagents required only for the telomerase reaction and PCR were all mixed first, and the telomerase reaction and PCR were carried out sequentially by regulating the reaction temperature. To the contrary, in the following Comparative Example 3 and Examples 4 to 5, only the reagents required for the telomerase reaction were first mixed to carry out a telomerase reaction, and a part of the reaction solution and the reagents required for the PCR were mixed to carry out the PCR.
Next, 4 μL of a solution prepared by diluting the solution after the telomerase reaction 20 times with milliQ water, 0.2 μL of 50× dNTP Mix, 0.2 μL of TS primer, 0.2 μL of Primer Mix, 0.1 μL of TaKaLa LA Taq Hot Start Version (manufactured by Takara Bio Inc.), 1 μL of 10× LA PCR buffer II (Mg^2+ plus) (buffer solution included in TaKaLa LA Taq Hot Start Version), and 4.3 μL of milliQ water were mixed to prepare a PCR solution in a total volume of 10 μL. Then, PCR was carried out by allowing this PCR solution to stand under temperature conditions in which a thermo cycle of: 30 sec at 95° C.; 30 sec at 59° C.; and 30 sec at 72° C. was repeated 30 times.
Finally, the solution after the PCR was electrophoresed on a 10% polyacrylamide gel, and stained with GelStar Nucleic Acid Stain (manufactured by Takara Bio Inc.). […] In the order from the leftmost lane, the results with final concentrations of TMPyP being 0 M, 0.1 μM, 0.3 μM, 1 μM, 3 μM and 10 μM are shown.

[2] = system: G-quadruplex structure (human telomeric oligo DNA); assay: Absorbance 480 to 800 nm of phthalocyanine mixed with G-quadruplex solutions; type: binding; conditions: 15 μM compound solution, 50 mM HEPES, 100 mM NaCl, pH7
Protocol: Hereinafter, the interaction between anionic phthalocyanines and various DNAs was studied in Examples 6, 7, 8 and 9. For this purpose, a solution containing a G-quadruplex structure, a solution including a single-stranded DNA, and a solution containing a double-stranded DNA were first prepared according to the following procedures.
A solution of 50 mM HEPES and 100 mM NaCl, pH7 (total volume: 100 μL) containing a single-stranded DNA consisting of a sequence of 5′-[…]-3′ (SEQ ID NO: 2; this sequence being similar to a sequence of a human telomere portion, and thus the DNA referred to as “human telomeric oligo DNA” hereafter) was incubated at 90° C. for 5 min, and thereafter cooled to 0° C. at a rate of temperature fall of 2° C./min, followed by finally incubating at 0° C. for 2 hrs.
The concentrations of the human telomeric oligo DNA contained in the solution were 0, 0.5, 2, 5, 10, 25, 50 and 100 μM.
The absolute values of the positive and negative peaks were maximized for the solution having the human telomeric oligo DNA concentration of 100 μM, and dropped in the order of 50, 25, 10, 5, 2 and 0.5 μM. […] Hereafter, G-quadruplex solutions prepared from the solutions having human telomeric oligo DNA concentrations of 100, 50, 25, 10, 5, 2 and 0.5 μM are referred to as G-quadruplex solutions A, B, C, D, E, F and G, respectively. On the other hand, the solution without the human telomeric oligo DNA contained therein is referred to as NC solution.
First, a solution of 50 mM HEPES and 100 mM NaCl, pH7 (total volume: 20 μL) containing 15 μM CuPC was prepared. Then, this CuPC solution was mixed with each of the G-quadruplex solutions C, D, E and F and the NC solution, and the absorbance of these liquid mixtures were measured at 480 to 800 nm.
First, a solution of 50 mM HEPES and 100 mM NaCl, pH7 (total volume: 20 μL) containing 15 μM NiPC was prepared. Then, this NiPC solution was mixed with each of the G-quadruplex solutions D, E, F and G, and the NC solution, and the absorbance of these liquid mixtures were measured at 480 to 800 nm.
First, a solution of 50 mM HEPES and 100 mM NaCl, pH7 (total volume: 20 μL) containing 15 μM PC was prepared. Then, this PC solution was mixed with each of the G-quadruplex solutions D, E, F and G, and the NC solution, and the absorbance of these liquid mixtures were measured at 480 to 800 nm.
First, a solution of 50 mM HEPES and 100 mM NaCl, pH7 (total volume: 20 μL) containing 15 μM CoPC was prepared. Then, this CoPC solution was mixed with each of the G-quadruplex solutions B, C, D and G, and the NC solution, and the absorbance of these liquid mixtures were measured at 480 to 800 nm.

Substance | amplification of the PCR control (band) [1] | interaction with the G-quadruplex structure (absorption peak) [2]
Copper(II) phthalocyanine-3,4′,4″,4′″-tetrasulfonic acid tetrasodium salt [CuPC] | not inhibited | an interaction occurred
Nickel(II) phthalocyanine tetrasulfonic acid tetrasodium salt [NiPC] | not inhibited | an interaction occurred
